From PubChem BioAssay (NCI)
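Five concentrations, 48 hours, 96-well plates. TGI: concentration producing complete growth inhibition.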

Tests used:
Assay in all cases: DTP human tumour cell line panel, 48 h
NCI-H23 lung = test system: NCI-H23 lung
UO-31 renal = test system: UO-31 renal
PC-3 prostate = test system: PC-3 prostate
U251 CNS = test system: U251 CNS
MOLT-4 leukemia = test system: MOLT-4 leukemia
A498 renal = test system: A498 renal
MDA-MB-435 = test system: MDA-MB-435
SNB-75 CNS = test system: SNB-75 CNS
OVCAR-5 ovarian = test system: OVCAR-5 ovarian
NCI-H460 lung = test system: NCI-H460 lung
K-562 leukemia = test system: K-562 leukemia
SNB-19 CNS = test system: SNB-19 CNS
MCF7 breast = test system: MCF7 breast

SMILES	TGI (NCI-H23 lung)	TGI (UO-31 renal)	TGI (PC-3 prostate)	TGI (U251 CNS)	TGI (MOLT-4 leukemia)	TGI (A498 renal)	TGI (MDA-MB-435)	TGI (SNB-75 CNS)	TGI (OVCAR-5 ovarian)	TGI (NCI-H460 lung)	TGI (K-562 leukemia)	TGI (SNB-19 CNS)	TGI (MCF7 breast)
CCSc1nc(C)nc2c1sc1nc3ccccc3n12	> 100 µM	> 100 µM	> 100 µM	> 100 µM	> 100 µM	> 100 µM	> 100 µM	> 100 µM	> 100 µM	> 100 µM	> 100 µM	> 100 µM	> 100 µM
COc1cc2c3cc1Oc1c(OC)c(OC)cc4c1C(Cc1ccc(O)c(c1)-c1cc(ccc1OC)CC3N(C)CC2)N(C)CC4 (centres undefined)	51.5 µM	29.2 µM	> 100 µM	> 100 µM	74.2 µM	46.3 µM	61.5 µM	39.6 µM	> 100 µM	51.2 µM	61.8 µM	56.1 µM	49 µM
CNC(=O)OCC1=C(COC(=O)NC)C(C)N(c2ccccc2)C1 (centres undefined)	> 100 µM	> 100 µM	> 100 µM	> 100 µM	71.1 µM	7.51 µM	96.4 µM	94.5 µM	91.9 µM	> 100 µM	72 µM	> 100 µM	58.3 µM
C=COC(=O)N1C2CCCC(Cl)(C(C)=O)C1CC2 (centres undefined)	> 100 µM	> 100 µM	> 100 µM	> 100 µM	> 100 µM	> 100 µM	> 100 µM	> 100 µM	> 100 µM	> 100 µM	> 100 µM	> 100 µM	> 100 µM
Cc1nn(C(=O)c2ccncc2)c2c1C(c1ccc([N+](=O)[O-])cc1)SC(N)=N2 (centres undefined)	> 100 µM	> 100 µM	> 100 µM	> 100 µM	> 100 µM	> 100 µM	> 100 µM	> 100 µM	> 100 µM	> 100 µM	> 100 µM	> 100 µM	> 100 µM
Nc1nc(Cl)c(C=O)c(NCC2(CO)CCC2)n1	> 100 µM	58.6 µM	34.6 µM	31.9 µM	65.5 µM	67.7 µM	> 100 µM	67.7 µM	> 100 µM	> 100 µM	31.7 µM	34.4 µM	> 100 µM
COc1ccc(Br)c(C=Nc2cccc3cc(OC)c(OC)cc23)c1	> 100 µM	97.5 µM	> 100 µM	12.1 µM	> 62.4 µM	> 100 µM	12.6 µM	> 100 µM	> 100 µM	> 100 µM	> 39.6 µM	> 100 µM	> 100 µM
Cn1c(O)c(C=Nc2ccc(Cl)cc2Cl)c(=O)n(C)c1=O	> 100 µM	> 100 µM	> 100 µM	> 100 µM	> 100 µM	> 100 µM	> 100 µM	> 100 µM	> 100 µM	> 100 µM	> 100 µM	> 100 µM	> 100 µM
CC1(C)CC[C@]2(C(=O)O)CC[C@]3(C)C(=CC[C@@H]4[C@@]5(C)CC[C@H](OC6OC(CO)C(O)C(O)C6O)C(C)(C)[C@@H]5CC[C@]43C)[C@@H]2C1 (some centres undefined)	3.52 µM	3.1 µM	2.96 µM	3.05 µM	4.55 µM	3.82 µM	3.39 µM	5.33 µM	4.12 µM	14.3 µM	3.67 µM	2.89 µM	3.91 µM
COc1ccc(S(=O)(=O)Nc2ccc(-c3csc(N4C(=O)/C(=C/c5cccs5)N=C4c4ccccc4)n3)cc2)cc1Cl	59.6 µM	86.3 µM	> 100 µM	> 100 µM	> 100 µM	65.2 µM	> 100 µM	> 100 µM	> 100 µM	> 100 µM	> 100 µM	> 100 µM	> 100 µM
CCCCN1CCC(O)(c2cc(C(=O)O)[nH]c2-c2cc(C)no2)C1=O (centres undefined)	> 100 µM	> 100 µM	> 100 µM	> 100 µM	> 100 µM	> 100 µM	> 100 µM	> 100 µM	> 100 µM	> 100 µM	> 100 µM	> 100 µM	> 100 µM
N#CC1=C(S)N(C2OC(CO)C(O)C(O)C2O)C(c2ccccc2)=CC1c1cccs1 (centres undefined)	> 100 µM	> 100 µM	30.8 µM	51.4 µM	> 100 µM	> 10 µM	44.1 µM	51.8 µM	> 100 µM	32.9 µM	> 100 µM	> 10 µM	54.9 µM
CC(C)C[C@H](NC(=O)CCc1cccc2ccccc12)B(O)O	7.81 µM	8.73 µM	29.3 µM	19.6 µM	3.86 µM	6.12 µM	1.02 µM	> 22.6 µM	6.72 µM	19.5 µM	21.4 µM	> 100 µM	> 52 µM
